Measured values published in patent US6900315B2, “2-amino-9H-purin-9-yl compounds and methods for inhibiting/treating HIV infections and AIDS related symptoms” (Yale University, priority 2001, dated 2005).
Where two headings read alike, the source gives them in different places. Values belong to the compound of their own block, whether it stands above or below them.

Key:
[1] = test system: KB; assay: Toxicity, dye based cell growth assay, KB; details: read-out: IC50 (inhibited 50% of the cell growth), oral carcinoma, 5 days
Protocol: (§1) To determine the toxicity of the compounds to various cell lines (Table 1, below), a similar dye based assay is performed in the absence of HIV. The toxicity of the compounds alone therefore was determined.

[2] = test system: MT-2; assay: Toxicity, dye based cell growth assay in absence of HIV, MT-2; details: read-out: IC50 (inhibited 50% of the cell growth); MT-2, HTLV infected T cell line, 5 days
Protocol: as §1

[3] = test system: CEM; assay: Toxicity, dye based cell growth assay, CEM; details: read-out: IC50 (inhibited 50% of the cell growth); CEM, T cell line, 5 days
Protocol: as §1

[4] = test system: HeLa; assay: Toxicity, dye based cell growth assay, HeLa; details: read-out: IC50 (inhibited 50% of the cell growth), cervical cancer cell line, 5 days
Protocol: as §1

[5] = test system: HIV IIIB; assay: Anti-HIV activity in MT-2 cells infected with HIV IIIB, MTT dye cell viability; type: cell-based; details: read-out: EC50 (concentration necessary to save 50% of the cells); MT-2 cells, HIV IIIB, MOI 0.1, 5 days, MTT; NA = No Activity at concentrations up to 100 uM, EC50 not achievable due to toxicity
Protocol: To assess the ability of the compounds according to the present invention to inhibit viral infection relative to other compounds experiments were performed in the MT-2 cell line, as previously described by Larder, et al., Antimicrobial Agents & Chemotherapy, vol. 34, 436 (1990). […] Cells were infected at an initial multiplicity of infection (MOI) of 0.1 and grown for 5 days. Cell viability was assessed by the use of dye metabolized by viable cells.

[6] = test system: HEP-G2; assay: Toxicity, dye based cell growth assay, HEP-G2; details: read-out: IC50 (inhibited 50% of the cell growth); HEP-G2, hepatoma cell line, 5 days
Protocol: as §1

[7] = biological target: T1, wild type HIV-1 reverse transcriptase (Human immunodeficiency virus type 1 group M subtype B, UniProt P04585); parameters: kpol/Kd: unit not given here; details: from Ray and Anderson or Furman et al., cited from earlier work
T1 construct: a mixture of 100 nM HIV-1 reverse transcriptase and 300 nM primer/template

[8] = biological target: T1, wild type HIV-1 reverse transcriptase; assay: Kinetics of nucleotide incorporation by wild type HIV-1 reverse transcriptase; type: biochemical; details: RT WT
Protocol: Continued research on the guanosine prodrug approach for making D4G a viable anti-HIV agent has yielded a number of new findings. In the present example, enzyme kinetics for the incorporation of the active metabolites of guanosine prodrugs with wild type HIV-1 reverse transcriptase was determined. In this experiment, a mixture of 100 nM HIV-1 reverse transcriptase and 300 nM primer/template in which the correct base incorporation is a guanine nucleotide was rapidly mixed with nucleotide in the presence of 50 mM Tris, 50 mM NaCl and 10 mM MgCl2 for a set amount of time and then the reaction was stopped by the addition 300 mM of EDTA.

[9] = biological target: T2, mitochondrial polymerase gamma (Homo sapiens, UniProt P54098); assay: Nucleotide incorporation by mitochondrial polymerase gamma into an elongating DNA strand; type: biochemical; details: mitochondrial polymerase gamma, incorporation
T2 sequence (P54098 1-1239): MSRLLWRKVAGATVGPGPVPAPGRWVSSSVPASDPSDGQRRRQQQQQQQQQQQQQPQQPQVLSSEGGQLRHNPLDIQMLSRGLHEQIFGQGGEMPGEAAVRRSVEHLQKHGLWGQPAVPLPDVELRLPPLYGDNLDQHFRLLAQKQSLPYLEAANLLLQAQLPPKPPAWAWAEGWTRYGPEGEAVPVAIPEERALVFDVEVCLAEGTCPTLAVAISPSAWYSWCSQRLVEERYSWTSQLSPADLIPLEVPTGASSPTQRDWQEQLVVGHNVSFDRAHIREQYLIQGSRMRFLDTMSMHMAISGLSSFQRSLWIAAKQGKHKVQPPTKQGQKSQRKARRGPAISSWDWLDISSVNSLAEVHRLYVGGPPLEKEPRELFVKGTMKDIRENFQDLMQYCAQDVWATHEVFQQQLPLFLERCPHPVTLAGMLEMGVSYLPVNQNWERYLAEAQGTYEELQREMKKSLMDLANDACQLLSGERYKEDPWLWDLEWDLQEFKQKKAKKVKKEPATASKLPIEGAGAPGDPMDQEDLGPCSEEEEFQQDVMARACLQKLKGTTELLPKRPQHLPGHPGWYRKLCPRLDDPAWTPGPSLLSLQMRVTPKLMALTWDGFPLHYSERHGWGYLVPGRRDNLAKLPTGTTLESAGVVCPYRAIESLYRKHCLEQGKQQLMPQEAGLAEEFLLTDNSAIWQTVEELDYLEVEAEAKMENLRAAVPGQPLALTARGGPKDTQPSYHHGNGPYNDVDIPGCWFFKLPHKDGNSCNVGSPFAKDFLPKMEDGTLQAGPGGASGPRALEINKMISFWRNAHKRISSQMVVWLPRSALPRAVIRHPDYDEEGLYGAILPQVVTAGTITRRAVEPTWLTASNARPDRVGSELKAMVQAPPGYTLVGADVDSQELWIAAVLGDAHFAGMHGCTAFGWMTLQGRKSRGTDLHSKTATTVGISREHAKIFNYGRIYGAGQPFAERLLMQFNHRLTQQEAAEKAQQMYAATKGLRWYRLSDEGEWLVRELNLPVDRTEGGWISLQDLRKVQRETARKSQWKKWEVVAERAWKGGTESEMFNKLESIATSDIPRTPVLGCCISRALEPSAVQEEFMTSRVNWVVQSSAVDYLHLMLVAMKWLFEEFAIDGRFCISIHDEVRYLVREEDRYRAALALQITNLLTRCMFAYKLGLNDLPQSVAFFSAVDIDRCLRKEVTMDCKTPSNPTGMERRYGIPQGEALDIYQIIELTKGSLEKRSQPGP

[10] = Table 4, primer/template DNA/DNA
[11] = Table 4, primer/template DNA/RNA

Structure (SMILES): Nc1nc(N)c2ncn([C@H]3CO[C@@H](CO)O3)c2n1 [DAPD]
IC50 [1]: > 500 µM
IC50 [2]: > 100 µM
IC50 [3]: > 500 µM
IC50 [4]: 500 ± 33 µM
EC50 [5]: 15 ± 4 µM
IC50 [6]: 500 ± 33 µM

Structure (SMILES): Nc1nc2c(ncn2[C@H]2CO[C@@H](COP(=O)(O)OP(=O)(O)OP(=O)(O)O)O2)c(=O)[nH]1 [DXGTP]
Kd ([7]; Table 3, substrate DNA/DNA): 2.5 ± 0.2 µM
Selectivity = (kpol/Kd)dGTP/(kpol/Kd)analog ([7]; Table 3, substrate DNA/DNA): 3
kpol ([7]; Table 3, substrate DNA/DNA): 1.46 ± 0.03 s⁻¹
kpol/Kd ([7]; Table 3, substrate DNA/DNA): 0.58 ± 0.05
Kd ([7]; Table 3, substrate DNA/RNA): 8.8 ± 1.1 µM
Selectivity = (kpol/Kd)dGTP/(kpol/Kd)analog ([7]; Table 3, substrate DNA/RNA): 20
kpol ([7]; Table 3, substrate DNA/RNA): 1.5 ± 0.1 s⁻¹
kpol/Kd ([7]; Table 3, substrate DNA/RNA): 0.17 ± 0.02

Structure (SMILES): Nc1nc2c(ncn2C2C=CC(COP(=O)(O)OP(=O)(O)OP(=O)(O)O)C2)c(=O)[nH]1 (single isomer, unassigned; (-)) [CBVTP, (−) carbovir-TP]
Selectivity = (kpol/Kd)dGTP/(kpol/Kd)analog ([7]; Table 3, substrate DNA/DNA): 30
kpol ([7]; Table 3, substrate DNA/DNA): 1.0 ± 0.06 s⁻¹
kpol/Kd ([7]; Table 3, substrate DNA/DNA): 0.05 ± 0.01
Selectivity = (kpol/Kd)dGTP/(kpol/Kd)analog ([7]; Table 3, substrate DNA/RNA): 10
kpol ([7]; Table 3, substrate DNA/RNA): 1.5 ± 0.05 s⁻¹
kpol/Kd ([7]; Table 3, substrate DNA/RNA): 0.42 ± 0.06
Efficiency [8, 10]: 0.05 ± 0.01 s^−1μM^−1
Kd [8, 10]: 21 ± 3 µM
Selectivity = efficiency dGTP/efficiency analog [8, 10]: 30
kpol [8, 10]: 1.0 ± 0.06 s⁻¹
Efficiency [8, 11]: 0.42 ± 0.06 s^−1μM^−1
Kd [8, 11]: 3.7 ± 0.5 µM
Selectivity = efficiency dGTP/efficiency analog [8, 11]: 10
kpol [8, 11]: 1.5 ± 0.05 s⁻¹

Kd [9]: 600 ± 160 nM
kpol [9]: 25 ± 2 s⁻¹
kpol/Kd [9]: 39 ± 13 µM⁻¹ s⁻¹
Structure (SMILES): Cc1cn([C@H]2C[C@H](O)[C@@H](COP(=O)(O)OP(=O)(O)OP(=O)(O)O)O2)c(=O)[nH]c1=O [dTTP]
